Where “and” joins values, the source holds several entries; their conditions need not be identical. Equal values may be shown once. Numbered stars: 1 amine (or outer) side, 2 acyl side, 3 side chain; on linkers, the order of the positions; unused ones are H or OH. Square brackets hold non-standard residues; d marks the D form. Peptide text beside a SMILES is read from it. ξ: configuration not given here. Phe(4-Cl) = N[C@@H](Cc1ccc(Cl)cc1)C(=O)O; 1Nal = N[C@@H](Cc1cccc2ccccc12)C(=O)O; 2Nal = N[C@@H](Cc1ccc2ccccc2c1)C(=O)O; X1 = O=C([C@@H]1CC(O)CN1[*:1])[*:2]; hPhe = N[C@@H](CCc1ccccc1)C(=O)O; Phg = N[C@H](C(=O)O)c1ccccc1; Tle = CC(C)(C)[C@H](N)C(=O)O; Nle = CCCC[C@H](N)C(=O)O; ξPip = O=C(O)C1CCCCN1; Aib = CC(C)(N)C(=O)O; ξNMeA = CNC(C)C(=O)O; ξAze = O=C(O)C1CCN1; Sar = CNCC(=O)O
Legend:
[1] = target: T1, E3 ubiquitin-protein ligase XIAP (Homo sapiens, UniProt P98170); assay: Binding affinity to the BIR3 domain of X-linked IAP
T1 sequence (P98170 whole entry, the tested form may be a part): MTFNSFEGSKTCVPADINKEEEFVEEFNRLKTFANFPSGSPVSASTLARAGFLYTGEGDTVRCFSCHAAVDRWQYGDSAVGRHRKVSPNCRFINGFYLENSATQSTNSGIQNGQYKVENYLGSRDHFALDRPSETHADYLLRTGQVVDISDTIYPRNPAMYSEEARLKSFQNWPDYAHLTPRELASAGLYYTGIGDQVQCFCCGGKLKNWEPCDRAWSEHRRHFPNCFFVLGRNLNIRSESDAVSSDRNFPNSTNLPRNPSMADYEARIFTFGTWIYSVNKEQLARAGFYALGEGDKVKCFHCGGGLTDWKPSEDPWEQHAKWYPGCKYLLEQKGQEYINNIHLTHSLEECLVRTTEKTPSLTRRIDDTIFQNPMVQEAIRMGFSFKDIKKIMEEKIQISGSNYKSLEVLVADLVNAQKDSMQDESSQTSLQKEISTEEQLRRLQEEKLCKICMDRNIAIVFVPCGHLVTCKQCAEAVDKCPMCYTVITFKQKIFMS

[2] = The compound was tested for toxicity against human breast cancer cell line MDA-MB-231; assay type: functional, cell-based; conditions: cancer cell lines
[3] = The compound was tested for toxicity against human ovarian cancer cell line SK-OV-3; assay type: functional, cell-based; conditions: cancer cell lines
[4] = target: T1, E3 ubiquitin-protein ligase XIAP; assay: Relief of caspase inhibition in reconstituted assay (APAF-1, caspase-9, procaspase-3) with XIAP
[5] = target: T1, E3 ubiquitin-protein ligase XIAP; assay: Relief of caspase inhibition in reconstituted assay (APAF-1, caspase-9, procaspase-3) with BIR3 domain of XIAP
[6] = The compound was tested for toxicity against human NSCL cancer cell line NCI-H522; assay type: functional, cell-based; conditions: cancer cell lines
[7] = The compound was tested for toxicity against human NSCL cancer cell line NCI-H23; assay type: functional, cell-based; conditions: cancer cell lines
[8] = The compound was tested for toxicity against human breast cancer cell line BT-549; assay type: functional, cell-based; conditions: cancer cell lines
[9] = The compound was tested for toxicity against human renal cancer cell line RXF-393; assay type: functional, cell-based; conditions: cancer cell lines
HL-60 = assay: cells; conditions: Homo sapiens
Description: The compound was tested for toxicity against human leukemia cancer cell line HL-60

SK-MEL-5 = assay: cells; conditions: Homo sapiens
Description: The compound was tested for toxicity against human melanoma cancer cell line SK-MEL-5

| Molecule | Kd [1] | also measured |
| --- | --- | --- |
| CC(C)[C@H](NC(=O)[C@H](C)N)C(=O)N(C)CC(=O)N[C@@H](Cc1ccccc1)C(=O)N[C@@H](Cc1ccc(O)cc1)C(=O)O (H-AV[Sar]FY-OH) | 600 nM |  |
| CC(C)[C@H](NC(=O)[C@H](C)N)C(=O)N1CCC[C@H]1C(=O)N[C@@H](Cc1cccc2ccccc12)C(=O)N[C@@H](Cc1ccc(O)cc1)C(=O)O (H-AVP[1Nal]Y-OH) | 90 nM |  |
| H-AVPIY-OH | 360 nM |  |
| CC(C)[C@H](NC(=O)[C@H](C)N)C(=O)N1CCC[C@H]1C(=O)NC(C)(C)C(=O)N[C@@H](Cc1ccc(O)cc1)C(=O)O (H-AVP[Aib]Y-OH) | 6700 nM |  |
| CC(C)[C@H](NC(=O)[C@H](C)N)C(=O)N1CCC[C@H]1C(=O)N[C@@H](Cc1ccc(Cl)cc1)C(=O)N[C@@H](Cc1ccc(O)cc1)C(=O)O (H-AVP[Phe(4-Cl)]Y-OH) | 180 nM |  |
| CNC(C)C(=O)N[C@H](C(=O)N1CCC[C@H]1C(=O)N[C@@H]1CCCc2ccccc21)C(C)(C)C (single isomer, unassigned) |  | EC50 [2]: 8300 nM; EC50 [3]: > 50 µM |
| H-AVPFG-OH | 3400 nM |  |
| CN[C@@H](C)C(=O)N[C@H](C(=O)N1CCC[C@H]1C(=O)N[C@H]1CCCc2ccccc21)C(C)(C)C |  | EC50 [2]: 3000 nM; EC50 [3]: 5.6 µM |
| H-AKPFY-OH | 50 nM |  |
| CC(C)[C@H](NC(=O)[C@H](C)N)C(=O)N1CCC[C@H]1C(=O)N[C@H](C(=O)N[C@@H](Cc1ccc(O)cc1)C(=O)O)c1ccccc1 (H-AVP[Phg]Y-OH) | 30 nM |  |
| CC(C)[C@H](NC(=O)[C@H](C)N)C(=O)NC(C)(C)C(=O)N[C@@H](Cc1ccccc1)C(=O)N[C@@H](Cc1ccc(O)cc1)C(=O)O (H-AV[Aib]FY-OH) | > 20000 nM |  |
| H-AGPFY-OH | 2700 nM |  |
| CCCC[C@H](NC(=O)[C@@H]1CCCN1C(=O)[C@@H](NC(=O)[C@H](C)N)C(C)C)C(=O)N[C@@H](Cc1ccc(O)cc1)C(=O)O (H-AVP[Nle]Y-OH) | 900 nM |  |
| H-AVPYY-OH | 300 nM |  |
| H-AVGFY-OH | 3000 nM |  |
| CC(C)C[C@@H](NC(=O)[C@H](C)N)C(=O)N1CCC[C@H]1C(=O)N[C@@H](Cc1ccccc1)C(=O)N[C@@H](Cc1ccc(O)cc1)C(=O)O | 160 nM |  |
| H-AVPLY-OH | 280 nM |  |
| CC(C)[C@H](NC(=O)[C@H](C)N)C(=O)N1CC(O)C[C@H]1C(=O)N[C@@H](Cc1ccccc1)C(=O)N[C@@H](Cc1ccc(O)cc1)C(=O)O (some centres not stated) (H-AV[X1]FY-OH) | 800 nM |  |
| H-GVPFY-OH | 9600 nM |  |

| Molecule | Kd [1] | also measured |
| --- | --- | --- |
| CC(C)[C@@H](NC(=O)[C@H](C)N)C(=O)N1CCC[C@H]1C(=O)N[C@@H](Cc1ccccc1)C(=O)N[C@@H](Cc1ccc(O)cc1)C(=O)O | 90 nM and 120 nM |  |
| CC(C)C(NC(=O)[C@H](C)N)C(=O)N1CCC[C@H]1C(=O)N[C@@H](Cc1ccccc1)C(=O)N[C@@H](Cc1ccc(O)cc1)C(=O)O (single isomer, unassigned) | > 20000 nM |  |
| CC(C(=O)N[C@H](C(=O)N1C[C@@H](Oc2ccccc2)C[C@H]1C(=O)NC1CCCc2ccccc21)C(C)(C)C)N(C)C (some centres not stated) | > 1000 nM | EC50 [4]: > 100 µM; EC50 [5]: > 100 µM |
| CN[C@@H](C)C(=O)N[C@H](C(=O)N1CCC[C@H]1C(=O)N[C@@H]1CCCc2ccccc21)C(C)(C)C |  | EC50 [6]: 1700 nM; EC50 [7]: 5.3 µM; EC50 [8]: 10 nM; EC50 [2]: 60 nM; EC50 [3]: 1.5 µM; EC50 [9]: 810 nM; EC50 (HL-60): 990 nM; EC50 (SK-MEL-5): 1300 nM |
| CC(C)[C@H](NC(=O)[C@H](C)N)C(=O)N1CCCCC1C(=O)N[C@@H](Cc1ccccc1)C(=O)N[C@@H](Cc1ccc(O)cc1)C(=O)O (some centres not stated) (H-AV[ξPip]FY-OH) | 400 nM |  |
| CC(C)[C@H](NC(=O)[C@H](C)N)C(=O)N1CCC[C@H]1C(=O)N[C@@H](Cc1ccc2ccccc2c1)C(=O)N[C@@H](Cc1ccc(O)cc1)C(=O)O (H-AVP[2Nal]Y-OH) | 190 nM |  |
| CN[C@@H](C)C(=O)N[C@H](C(=O)N1CCC[C@H]1C(=O)NC1c2ccccc2-c2ccccc21)C(C)(C)C | 40 nM |  |
| C[C@H](N)C(=O)N[C@H](C(=O)N1CCC[C@H]1C(=O)N[C@@H](Cc1ccccc1)C(=O)N[C@@H](Cc1ccc(O)cc1)C(=O)O)C(C)(C)C (H-A[Tle]PFY-OH) | 40 nM |  |
| C[C@@H](C(=O)N[C@H](C(=O)N1CCC[C@H]1C(=O)N[C@@H]1CCCc2ccccc21)C1CCCCC1)N(C)C |  | EC50 [6]: > 50000 nM; EC50 [7]: > 50 µM; EC50 [8]: 1000 nM; EC50 [2]: 3400 nM; EC50 [3]: > 25 µM; EC50 [9]: > 50000 nM; EC50 (HL-60): 4300 nM; EC50 (SK-MEL-5): 15000 nM |
| C[C@H](N)C(=O)NC(C)(C)C(=O)N1CCC[C@H]1C(=O)N[C@@H](Cc1ccccc1)C(=O)N[C@@H](Cc1ccc(O)cc1)C(=O)O (H-A[Aib]PFY-OH) | > 20000 nM |  |
| CC(C)[C@H](NC(=O)[C@H](C)N)C(=O)N(C)C(C)C(=O)N[C@@H](Cc1ccccc1)C(=O)N[C@@H](Cc1ccc(O)cc1)C(=O)O (some centres not stated) (H-AV[ξNMeA]FY-OH) | 1600 nM |  |
| CC(C)[C@H](NC(=O)[C@H](C)N)C(=O)N1CCC1C(=O)N[C@@H](Cc1ccccc1)C(=O)N[C@@H](Cc1ccc(O)cc1)C(=O)O (some centres not stated) (H-AV[ξAze]FY-OH) | 120 nM |  |
| CC(C)[C@@H](C(=O)N1CCC[C@H]1C(=O)N[C@@H](Cc1ccccc1)C(=O)N[C@@H](Cc1ccc(O)cc1)C(=O)O)N(C)C | 8700 nM |  |
| H-VVPFY-OH | 900 nM |  |
| CC(C(=O)N1CCC[C@H]1C(=O)N[C@@H](Cc1ccccc1)C(=O)N[C@@H](Cc1ccc(O)cc1)C(=O)O)N(C)C(=O)[C@H](C)N (some centres not stated) (H-A[ξNMeA]PFY-OH) | > 20000 nM |  |
| CN[C@@H](C)C(=O)N[C@H](C(=O)N1CCC[C@H]1C(=O)N[C@@H]1CCc2ccccc21)C(C)(C)C | 20 nM |  |
| CN[C@@H](C)C(=O)N[C@H](C(=O)N1CCC[C@H]1C(=O)N[C@@H]1CCCc2ccccc21)C1CCCCC1 |  | EC50 [6]: 2000 nM; EC50 [7]: 1.5 µM; EC50 [8]: 7 nM; EC50 [2]: 10 nM; EC50 [3]: 1.3 µM; EC50 [9]: 1100 nM; EC50 (HL-60): 190 nM; EC50 (SK-MEL-5): 290 nM |
| CC(C)[C@H](NC(=O)[C@H](C)N)C(=O)N1CCC[C@H]1C(=O)N[C@@H](CCc1ccccc1)C(=O)N[C@@H](Cc1ccc(O)cc1)C(=O)O (H-AVP[hPhe]Y-OH) | 180 nM |  |

Source: ChEMBL document CHEMBL1138686, “Discovery of potent antagonists of the antiapoptotic protein XIAP for the treatment of cancer” (J Med Chem, 2004)
